{"source": "paper PMC10771296", "about": "“Plectasin: from evolution to truncation, expression, and better druggability” (Frontiers in Microbiology, 2023)", "key": {"S. aureus ATCC43300 [1]": {"system": "S. aureus ATCC43300", "test": "Thermal stability read out as MIC", "format": "physicochemical, Staphylococcus aureus", "conditions": "1 h; for MIC after heat treatment: triplicates", "procedure": "(§1) The stability of Ple-AB was assessed based on its antibacterial activity against S. aureus ATCC43300. Temperature stability was determined by incubation at 20, 40, 60, 80, and 100°C for 1 h ([Li et al., 2020]). The pH stability was determined by incubation in buffers with a pH of 2, 4, 6, 8, and 10 for 4 h ([Yang et al., 2017]). The peptides were incubated with different concentrations of metal ions, serum, artificial gastric fluid, and simulated intestinal fluid to assess their stability in the blood and intestines ([Lyu et al., 2019]). All the treatments were performed in triplicates."}, "E. coli ATCC25922": {"system": "E. coli ATCC25922", "test": "MIC, micro broth dilution", "format": "cell-based", "conditions": "1 × 10^5 CFU/mL, repeated thrice", "procedure": "(§2) The minimum inhibitory concentration (MIC) of the peptides was assayed using the micro broth dilution method, which is an important indicator of the antibacterial activity of the AMPs ([Liu et al., 2021]). […] The MIC was defined as the lowest concentration of ones at which no visible bacterial growth was observed. All the assays were repeated thrice."}, "Shigella CMCC3926": {"system": "Shigella CMCC3926", "test": "MIC, micro broth dilution", "format": "cell-based", "conditions": "1 × 10^5 CFU/mL, repeated thrice", "procedure": "as §2"}, "S. enteriditis CVCC3377": {"system": "S. enteriditis CVCC3377", "test": "MIC, micro broth dilution", "format": "cell-based", "conditions": "1 × 10^5 CFU/mL, repeated thrice", "procedure": "as §2"}, "E. coli O157": {"system": "E. coli O157", "test": "MIC, micro broth dilution", "format": "cell-based", "conditions": "1 × 10^5 CFU/mL, repeated thrice", "procedure": "as §2"}, "P. aeruginsoa CICC21630": {"system": "P. aeruginsoa CICC21630", "test": "MIC, micro broth dilution", "format": "cell-based", "conditions": "1 × 10^5 CFU/mL, repeated thrice", "procedure": "as §2"}, "S. aureus ATCC43300 [2]": {"system": "S. aureus ATCC43300", "test": "Stability in simulated (artificial) intestinal fluid read out as MIC", "format": "in vitro ADME, Staphylococcus aureus", "procedure": "as §1"}, "mouse erythrocytes": {"system": "mouse erythrocytes", "test": "Hemolysis", "format": "cell-based", "conditions": "8% mouse erythrocyte suspension, 37°C", "procedure": "The hemolytic properties of the peptides were evaluated by measuring the amount of hemoglobin released from fresh mouse erythrocytes ([Yang et al., 2019]). Blood was collected from mice in sodium heparin anticoagulation tubes, and the erythrocytes were washed three or more times with 0.9% saline to obtain an 8% erythrocyte suspension. The erythrocyte suspension was mixed with an equal volume of Ple-AB at concentrations of 0.5–256 μg/mL, incubated at 37°C, and the absorbance values were measured at 540 nm. PBS and 0.1% Triton X-100 were used as the blank (A0) and positive controls (A100), respectively. Hemolysis (%) = [(A – A0)/(A100 – A0)] × 100, and three replicates were conducted for each case."}, "ICR mice": {"system": "ICR mice", "test": "In vivo safety: body weight and HE histology", "conditions": "10 mg/kg i.p. for six consecutive days", "procedure": "Eight 6-week-old ICR mice were randomly divided into two groups and injected intraperitoneally with Ple-AB (10 mg/kg, body weight) and saline for six consecutive days. […] They were weighed daily, and blood was collected on the 7th day for hematological and biochemical analyses. Simultaneously, the heart, liver, spleen, lungs, and kidneys were collected for tissue fixation and hematoxylin–eosin (HE) staining to observe any pathological changes ([Shishkina et al., 2023])."}, "S. aureus ATCC 43300": {"system": "S. aureus ATCC 43300", "test": "Inhibition zone screening of expression supernatants", "format": "cell-based, Staphylococcus aureus", "conditions": "induced supernatant of P. pastoris X-33 transformants, 48-well plates, 120 h", "description": "The recombinant expression vector was constructed by ligating the designed and optimized sequence to the pPICZαA inducible expression vector, relying on the preference of the codon of P. pastoris. The linearized plasmid was transferred into P. pastoris X-33 for expression and the resulting product was verified for activity using an inhibition zone assay (against S. aureus ATCC 43300) before the active peptide was expressed at a high density in a 5-L fermenter ([Mao et al., 2015]). The supernatant was purified using the AKTA Express system. The fermentation supernatant was collected by centrifugation (5,000 rmp, 30 min), filtered with micro-filtration membranes ([…]). According to the isoelectric point of the target product, the corresponding A (50 mM sodium phosphate buffer, pH 6.7) and B (50 mM sodium phosphate buffer, 600 mM NaCl, pH 6.7) buffers were configured and purified by HiPrep SP FF cation exchange column (GE Healthcare). The protein samples were eluted by increasing the NaCl concentration in a stepwise manner, and the corresponding elution peak was collected. The purified product was verified using tricine-sodium dodecyl sulfate-polyacrylamide gel electrophoresis (Tricine-SDS-PAGE) and matrix-assisted laser desorption/ionization–time-of-flight mass spectrometry (MALDITOF MS) ([Zhang et al., 2014]).\nA total of 15 recombinant plasmids were constructed. […]"}, "S. aureus ATCC25923": {"system": "S. aureus ATCC25923", "test": "MIC/MBC, micro broth dilution", "format": "cell-based, Staphylococcus aureus", "procedure": "as §2"}, "S. aureus E48": {"system": "S. aureus E48", "test": "MIC/MBC, micro broth dilution", "format": "cell-based, Staphylococcus aureus", "procedure": "as §2"}, "S. aureus CVCC546": {"system": "S. aureus CVCC546", "test": "MIC/MBC, micro broth dilution", "format": "cell-based, Staphylococcus aureus", "procedure": "as §2"}, "S. aureus ATCC43300 [3]": {"system": "S. aureus ATCC43300", "test": "MIC/MBC, micro broth dilution", "format": "cell-based, Staphylococcus aureus", "procedure": "as §2"}, "[4]": {"conditions": "micro broth dilution, 1 × 10^5 CFU/mL, repeated thrice"}}, "note": "Entries after “also recorded” stand apart in the source; their conditions may differ. Where a SMILES comes first, the peptide text is derived from it. Bridges are numbered along the chain shown (N, C = ends)."}
{"smiles": "CC[C@H](C)[C@@H]1NC(=O)[C@H](CO)NC(=O)[C@H](CCCCN)NC(=O)[C@@H]2CSSC[C@@H](C(=O)N[C@@H](Cc3ccc(O)cc3)C(=O)O)NC(=O)[C@H](CCCCN)NC(=O)[C@@H]3CSSC[C@H](NC(=O)[C@H](CCC(N)=O)NC(=O)[C@H](CCSC)NC(=O)[C@H](CCC(=O)O)NC(=O)[C@H](CC(=O)O)NC(=O)[C@H](Cc4c[nH]c5ccccc45)NC(=O)[C@@H]4CCCN4C(=O)[C@@H](NC(=O)CNC(=O)[C@H](Cc4ccccc4)NC(=O)CN)CSSC[C@H](NC(=O)[C@H](Cc4ccc(O)cc4)NC(=O)CNC(=O)CNC(=O)[C@H](CCCCN)NC(=O)[C@H](Cc4ccc(O)cc4)NC(=O)CNC(=O)[C@H](CCCCN)NC1=O)C(=O)N[C@@H](C)C(=O)N[C@@H](CCCCN)C(=O)NCC(=O)NCC(=O)N[C@@H](Cc1ccccc1)C(=O)N[C@@H](C(C)C)C(=O)N3)C(=O)N[C@@H](Cc1c[nH]cn1)C(=O)N[C@@H](CC(N)=O)C(=O)N[C@@H](Cc1c[nH]cn1)C(=O)N2", "note": "[Ple-AB] (H-GFGCPWDEMQCHNHCKSIKGYKGGYCAKGGFVCKCY-OH; disulfide 4-26, 11-33, 15-35; N-terminus and C-terminus assumed)", "values": [{"measurement": "MIC after heat treatment", "setting": "S. aureus ATCC43300 [1]; 20°C", "result": 16, "unit": "mg/L"}, {"measurement": "MIC after heat treatment", "setting": "S. aureus ATCC43300 [1]; 40°C", "result": 16, "unit": "mg/L"}, {"measurement": "MIC after heat treatment", "setting": "S. aureus ATCC43300 [1]; 60°C", "result": 16, "unit": "mg/L"}, {"measurement": "MIC after heat treatment", "setting": "S. aureus ATCC43300 [1]; 80°C", "result": 16, "unit": "mg/L"}, {"measurement": "MIC after heat treatment", "setting": "S. aureus ATCC43300 [1]; 100°C", "result": 32, "unit": "mg/L"}, {"measurement": "Increase of MIC after heat treatment", "setting": "S. aureus ATCC43300 [1]; 100°C, versus control", "result": "twofold"}, {"measurement": "MIC", "setting": "E. coli ATCC25922", "result": ">128", "unit": "mg/L"}, {"measurement": "MIC", "setting": "Shigella CMCC3926", "result": ">128", "unit": "mg/L"}, {"measurement": "MIC", "setting": "S. enteriditis CVCC3377", "result": ">128", "unit": "mg/L"}, {"measurement": "MIC", "setting": "E. coli O157", "result": ">128", "unit": "mg/L"}, {"measurement": "MIC", "setting": "P. aeruginsoa CICC21630", "result": ">128", "unit": "mg/L"}, {"measurement": "MIC after Artificial Intestinal Fluid", "setting": "S. aureus ATCC43300 [2]; Artificial Intestinal Fluid (trypsin), 1 h, read-out MIC, triplicates", "result": 32, "unit": "mg/L"}, {"measurement": "Remaining share of initial activity after simulated intestinal fluids", "setting": "S. aureus ATCC43300 [2]; simulated intestinal fluids (trypsin), 1 h (lasted for 2 h), from MIC", "result": "approximately 50%"}, {"measurement": "Hemolytic rate", "setting": "mouse erythrocytes; all concentrations 0.5–256 μg/mL, A540, three replicates", "result": "less than 2%"}, {"measurement": "Hemolytic rate", "setting": "mouse erythrocytes; highest concentration, 256 μg/mL, A540", "result": 1.07, "unit": "%"}, {"measurement": "Histological morphology of heart, liver, spleen, lungs, kidneys (HE staining)", "setting": "ICR mice; one week after injection, vs saline", "result": "no differences in histological morphology"}, {"measurement": "Body weight change", "setting": "ICR mice; weighed daily", "result": "slight tendency to lose weight on the second day after the injection"}, {"measurement": "Antibacterial activity in inhibition circle screening", "setting": "S. aureus ATCC 43300", "result": "better antibacterial activity; also recorded: normal or higher activity"}, {"measurement": "MBC", "setting": "S. aureus ATCC25923; S. aureus ATCC25923", "result": 64, "unit": "mg/L"}, {"measurement": "MIC", "setting": "S. aureus ATCC25923; [4]", "result": 16, "unit": "mg/L"}, {"measurement": "MBC", "setting": "S. aureus E48; S. aureus E48", "result": 16, "unit": "mg/L"}, {"measurement": "MIC", "setting": "S. aureus E48; bovine clinical strain, micro broth dilution, 1 × 10^5 CFU/mL, repeated thrice", "result": 4, "unit": "mg/L"}, {"measurement": "MBC", "setting": "S. aureus CVCC546; S. aureus CVCC546", "result": 16, "unit": "mg/L"}, {"measurement": "MIC", "setting": "S. aureus CVCC546; [4]", "result": 8, "unit": "mg/L"}, {"measurement": "MBC", "setting": "S. aureus ATCC43300 [3]; S. aureus ATCC43300", "result": 32, "unit": "mg/L"}, {"measurement": "MIC", "setting": "S. aureus ATCC43300 [3]; [4]", "result": 16, "unit": "mg/L"}, {"measurement": "MIC", "setting": "S. aureus ATCC43300 [3]; untreated control of the stability test, triplicates", "result": 16, "unit": "mg/L"}]}
